Patent US9643940B2, “Amine salt and crystals thereof” (ONO PHARMACEUTICAL CO., LTD., priority 2012, dated 2017)

Assays:
[1] = Examination of salts of Compound 17 for crystallization; assay type: physicochemical; conditions: for State: salt of Compound 17 with the stated counter base, concentrated from methanol, triturated with various solvents; for State of the salt: salts of Compound 17 with the named bases
Method: Then, the mixture was concentrated under reduced pressure and trituration was conducted with using various solvents. For the examination, ethyl acetate, methyl t-butyl ether, n-hexane and the like were used as the solvents.

[2] = Chemical stability test (residual percentage by HPLC after storage); assay type: physicochemical; conditions: for Residual percentage (%): relative to sample stored at −20° C., HPLC; for residual percentages: during storage under each condition
Method: With respect to Compound 17 and Crystalline forms A, B and C of Compound 18, chemical stability test was conducted according to the method and the condition below.
In a laboratory tube, approximately 1.5 to 3 mg of a test compound was weighed and stored under the condition below.
After storing, the residual percentage (%) of the sample stored under each condition relative to the area percentage of the main component in the sample stored at −20° C. was calculated with using HPLC. In addition, the appearance was observed by eye and compared with the sample stored at −20° C.
80° C.: One week, two weeks and one month
60° C.: Two weeks and one month
40° C.: Two weeks, one month, two months, four months and six months
25° C.-60% RH: Two months, four months and six months
5° C.: Two months, four months and six months
40° C.-75% RH (opened): Two weeks, one month, two months, four months and six months
25° C.-40% RH (opened): Two weeks, one month and two months
25° C.-60% RH (opened): Two weeks, one month and two months
25° C.-75% RH (opened): Two weeks, one month and two months
The samples to be compared with the samples above were stored at −20° C.
A sample to be evaluated was dissolved in a mixed solution of acetonitrile/20 mmol/L KH2PO4 aq. (pH3.0 with H3PO4) (1/1) and a solution of 1.0 mg/mL (concentration as a salt) was prepared.
Detector: Ultraviolet absorptiometer (measurement wavelength: 215 nm)
Column: CHIRALCEL OD-3R (150×4.6 mm, S-5 μm)
Column temperature: 25° C.
Mobile phase: Solution A: 20 mmol/L KH2PO4 aq. (pH3.0 with H3PO4), Solution B: CH3CN
Area measurement range: 35 minutes

[3] = tested on: bladder detrusor; experiment: Evaluation of the activity to contract the bladder detrusor (bladder strip specimens, Magnus system); assay type: tissue-based; conditions: rat bladder strip; for Change of tension (%): contraction evoked by potassium chloride solution (7.5 mmol/L) set at 100%
Method: Rats were anesthetized with pentobarbital, followed by abdominal incision to remove the bladders and the urethras. The bladder bodies were cut in the longitudinal direction to prepare strip specimens with a size of about 10×3 mm. Additionally, each of the urethras was also cut in the longitudinal direction to prepare specimens with a size of about 10×3 mm. The prepared specimens were suspended in Krebs buffer (37° C., 5 mL), which was aerated with a mixed gas of 95% O2 and 5% CO2. The tension values of the specimens were measured using a Magnus system equipped with an isometric transducer and an amplifier, and the measured values were recorded on a computer via a data collection system. The specimens were suspended with a load of about 0.5 g. More than 1 hr later, potassium chloride (100 mmol/L) was added and the maximal contraction response was observed. After washing with Krebs buffer, the specimens were suspended with a load of about 0.5 g for stabilization. A potassium chloride solution (7.5 mmol/L) was added to induce the contraction of the specimens. After the contraction-inducing response was stabilized, the test compound was added in a cumulative manner and the response was observed before and after the treatment with the drug. The change of tension (%) of a test compound of each concentration was calculated with setting the contraction evoked by the addition of potassium chloride solution (mg) at 100%.

State [1] | State of the salt [1] | Compound | further results
Oily | – | CNCCCO | –
Oily | – | c1ccc(CNCc2ccccc2)cc1 | –
Oily | – | CCCCNCCC | –
Oily | – | CNCCNC | –
Oily | amorphous oily substances | [Ca] [Calcium] | –
Oily | amorphous oily substances | OCCNCCO [Diethanolamine] | –
Oily | amorphous oily substances | [Mg] [Magnesium] | –
Oily | amorphous oily substances | [K+] [Potassium] | –
Oily | amorphous oily substances | CCN(CC)CC [Triethylamine] | –
Oily | – | CC1CCNCC1 [drawing 23] | –

More lines, now with the values behind:

Compound | State [1] | State of the salt [1] | further results
CNCCOC | Oily | – | –
C#CCN(C)C | Oily | – | –
CCNCCCCO | Oily | – | –
c1ccc2c(c1)CNC2 | Oily | – | –
C=CCNCC=C | Oily | – | –
C1CCCNCC1 | Oily | – | –
C1=CCNCC1 | Oily | – | –
CCc1ncc[nH]1 | Oily | – | –
OC[C@@H]1CCCN1 | Oily | – | –
CN1CCCCC1 | Oily | – | –
COC1CCNCC1 | Oily | – | –
OC1CCNCC1 [4-hydroxypiperidine] | – | amorphous oily substances | –
CC1CCNCC1 [4-methylpiperidine] | – | amorphous oily substances | –
OCCC1CCNCC1 [4-piperidineethanol] | – | amorphous oily substances | –
C[C@@](O)(C/C=C/[C@H]1CCC(=O)[C@@H]1CCSc1nc(C(=O)O)cs1)CCC(F)=C(F)F [Compound 17, 2-[(2-{(1R,5R)-2-oxo-5-[(1E,4S)-7,8,8-trifluoro-4-hydroxy-4-methyl-1,7-octadien-1-yl]cyclopentyl}ethyl)thio]-1,3-thiazole-4-carboxylic acid] | – | – | Residual percentage (%) ([2]; 40° C.-75% RH-one month): 58.6%; Residual percentage (%) ([2]; 40° C.-one month): 76.0%; Residual percentage (%) ([2]; 60° C.-one month): 60.4%; residual percentages [2]: decreased
C[C@@](O)(C/C=C/[C@H]1CCC(=O)[C@@H]1CCSc1nc(C(=O)O)cs1)CCC(F)=C(F)F [Crystalline Form A, piperidin-4-ylmethanol 2-[(2-{(1R,5R)-2-oxo-5-[(1E,4S)-7,8,8-trifluoro-4-hydroxy-4-methyl-1,7-octadien-1-yl]cyclopentyl}ethyl)thio]-1,3-thiazole-4-carboxylate] | – | – | Residual percentage (%) ([2]; 40° C.-75% RH-one month): 92.0%; Residual percentage (%) ([2]; 40° C.-one month): 99.6%; Residual percentage (%) ([2]; 60° C.-one month): 98.6%
C[C@@](O)(C/C=C/[C@H]1CCC(=O)[C@@H]1CCSc1nc(C(=O)O)cs1)CCC(F)=C(F)F [Crystalline Form B, piperidin-4-ylmethanol 2-[(2-{(1R,5R)-2-oxo-5-[(1E,4S)-7,8,8-trifluoro-4-hydroxy-4-methyl-1,7-octadien-1-yl]cyclopentyl}ethyl)thio]-1,3-thiazole-4-carboxylate] | – | – | Residual percentage (%) ([2]; 40° C.-75% RH-one month): 92.6%; Residual percentage (%) ([2]; 40° C.-one month): 99.6%; Residual percentage (%) ([2]; 60° C.-one month): 98.3%
C[C@@](O)(C/C=C/[C@H]1CCC(=O)[C@@H]1CCSc1nc(C(=O)O)cs1)CCC(F)=C(F)F [Crystalline Form C, piperidin-4-ylmethanol 2-[(2-{(1R,5R)-2-oxo-5-[(1E,4S)-7,8,8-trifluoro-4-hydroxy-4-methyl-1,7-octadien-1-yl]cyclopentyl}ethyl)thio]-1,3-thiazole-4-carboxylate] | – | – | Residual percentage (%) ([2]; 40° C.-75% RH-one month): 97.5%; Residual percentage (%) ([2]; 40° C.-one month): 99.4%; Residual percentage (%) ([2]; 60° C.-one month): 97.9%
C1CCC(NC2CCCCC2)CC1 [Dicyclohexylamine] | Oily | amorphous oily substances | –
OCCC1CCNCC1 [drawing 22] | Oily | – | –
OC1CCNCC1 [drawing 24] | Oily | – | –
CC(C)(C)N [t-Butylamine] | Oily | – | –
Arginine | Oily | amorphous oily substances | –
Lysine | Oily | amorphous oily substances | –
Piperidin-4-ylmethanol 2-[(2-{(1R,5R)-2-oxo-5-[(1E,4S)-7,8,8-trifluoro-4-hydroxy-4-methyl-1,7-octadien-1-yl]cyclopentyl}ethyl)thio]-1,3-thiazole-4-carboxylate [Compound 18] | Crystalline solid | – | residual percentages [2]: ≥ 90%; Change of tension (%) ([3]; 1 nmol/L): 5.97%; Change of tension (%) ([3]; 10 nmol/L): 54.35%; Change of tension (%) ([3]; 100 nmol/L): 177.91%; Change of tension (%) ([3]; 1 μmol/L): 245.91%; Effect on the bladder detrusor (in words) [3]: contracted the bladder detrusor
Sodium | Oily | amorphous oily substances | –
